“Also recorded” adds a separate entry of the source.
Legend:
Type in all cases: physicochemical
[1] = Gravimetric vapour sorption (GVS)
Protocol: Sorption isotherms were obtained using a SMS DVS Intrinsic moisture sorption analyser, controlled by DVS Intrinsic Control software. The sample temperature was maintained at 25° C. by the instrument controls. The humidity was controlled by mixing streams of dry and wet nitrogen, with a total flow rate of 200 ml/min. The relative humidity was measured by a calibrated Rotronic probe (dynamic range of 1.0 — 100% RH), located near the sample. The weight change, (mass relaxation) of the sample as a function of % RH was constantly monitored by a microbalance (accuracy ±0.005 mg). Typically, 20-30 mg of sample was placed in a tared mesh stainless steel basket under ambient conditions. The sample was loaded and unloaded at 40% RH and 25° C. (typical room conditions). A moisture sorption isotherm was performed as outlined below (2 scans per complete cycle). The standard isotherm was performed at 25° C. at 10% RH intervals over a 0-90% RH range. Typically, a double cycle (4 scans) was carried out. Data analysis was carried out within Microsoft Excel using the DVS Analysis Suite. [table]

[2] = Static storage stability at elevated temperature/humidity (XRPD, HPLC)
[3] = Intrinsic dissolution rate (IDR) in FaSSGF
[4] = Competitive slurries in different water activity (thermodynamic stability)
Protocol: Competitive slurries of the anhydrous and hydrated forms in different water activity at 50° C. and 5° C. were used to determine the thermodynamic stability relationships.

[5] = Thermodynamic aqueous solubility; details: for pH of saturated solution: water, after 24 hours equilibration at 25° C.
Protocol: Aqueous solubility was determined by suspending sufficient compound in 0.5 ml deionized water to give a maximum final concentration of 40 mg/ml of the parent free-form of the compound. The suspension was equilibrated at 25° C., on a Heidolph plate shaker set to 750 rpm for 24 hours. After equilibration, the appearance was noted and the pH of the saturated solution was measured. Samples forming suspensions were centrifuged for 4 min at 13,500 rpm. Samples were then filtered through a glass fiber C filter (particle retention 1.2 μm), before dilution with H2 O as appropriate. Quantitation was by HPLC (see Table 2 for parameters) with reference to a standard solution of approximately 0.15 mg/ml in DMSO. Different volumes of the standard, diluted and undiluted sample solutions were injected. The solubility was calculated using the peak areas determined by integration of the peak found at the same retention time as the principal peak in the standard injection. Analysis was performed on an Agilent HP1100/Infinity II 1260 series system equipped with a diode array detector and using OpenLAB software.

Which “Reversible water uptake by GVS” value ([1]; 0-90% RH, 25° C.) does the source give for O=C(NO)c1cnc(N2C[C@@H]3[C@H](C2)[C@H]3NCc2ccc3cc(F)ccc3n2)nc1 [Mesylate Form 1, N-hydroxy 2-{6-[(6-fluoro-quinolin-2-ylmethyl)-amino]-3-aza-bicyclo[3.1.0]hex-3-yl}pyrimidine-5-carboxamide] here?
Its value is 0.35% reversible uptake from 0-90%.

What about the “Hygroscopicity by GVS” value ([1]; 25° C.) of the same molecule?
Its value is “Slightly hygroscopic”.

And the “XRPD post-GVS (solid form)” value ([1]; residue after GVS)?
Its value is “no change; also recorded: XRPD remains unchanged”.

What about the “HPLC purity after static storage” value ([2]; 25° C./97% RH, 1 week) of the same molecule?
The value was “no significant drop in purity”.

What about the “HPLC purity after static storage” value ([2]; 25° C./97% RH, 14 weeks) of the same molecule?
The value was 93.5%.

What about the “Solid form by XRPD after static storage” value ([2]; 25° C./97% RH, 14 weeks) of the same molecule?
Its value is “Mesylate Form 1”.

And the “Solid form by XRPD after static storage” value ([2]; 25° C./97% RH, 7 days (1 week))?
Its value is “unchanged; also recorded: No change, Mesylate Form 1”.

And the “HPLC purity after static storage” value ([2]; 40° C./75% RH, 1 week)?
Its value is “no significant drop in purity”.

What about the “HPLC purity after static storage” value ([2]; 40° C./75% RH, 14 weeks) of the same molecule?
Its value is “Form 2 (94.7% purity)”.

And the “Solid form by XRPD after static storage” value ([2]; 40° C./75% RH, 14 weeks)?
Its value is “Mixture of Mesylate Form 1 and Mesylate”.

And the “Solid form by XRPD after static storage” value ([2]; 40° C./75% RH, 7 days (1 week))?
Its value is “unchanged; also recorded: No change, Mesylate Form 1”.

What about the “IDR relative to free base form A” value ([3]; FaSSGF) of the same molecule?
The value was about 8 times.

What about the “IDR in FaSSGF” value ([3]; Fasted State Simulated Gastric Fluid) of the same molecule?
Its value is 9.1 mg/min/cm^2.

What about the “Water activity (aw) up to which the form is the most stable” value ([4]; competitive slurries at 50° C.) of the same molecule?
Its value is 0.6.

What about the “Water activity (aw) up to which the form is the most stable” value ([4]; competitive slurries at ° C. (so in the source)) of the same molecule?
The value was at least 0.3.

And the solubility at 24 h ([5]; thermodynamic from solid, deionized water, 25° C., 24 hours, maximum final concentration 40 mg/ml of parent free-form)?
Its solubility at 24 h is 40 mg/mL.

What about the “pH of saturated solution” value [5] of the same molecule?
The value was “(pH = 3.2)”.

What about the “pH of saturated solution” value ([5]; listed as mesylate) of the same molecule?
The value was about 3.2.
